This passage reports IC30 and IC50 results from US5968956A, “Substituted piperidine derivative and medicine comprising the same” (SS Pharmaceutical Co., Ltd., priority 1995, dated 1999).

The IC30 is the concentration at which the effect reaches the 30% level. The term IC50 denotes the point on the concentration scale where inhibition reaches its midpoint. A low value points to higher potency.

The subject of assay [1] is bladder specimens enucleated from rats. The experiment in a line: Calcium antagonism against bladder specimens enucleated from rats (contraction caused by calcium chloride). Type of assay: cell-based, rat (male S. D.). Particulars: Rattus norvegicus; inhibition of contraction caused by 10^-3 M calcium chloride after Ca removal with 1 mM EDTA; cumulative application; corrected for spontaneous relaxation. As to the method:
(§1) Male S. D. rats weighing 220-450 g were exsanguinated to death to enucleate their bladders, thereby preparing vertically split specimens (3-5 mm wide by 10-15 mm long) with each triangular part removed therefrom. Each of the specimens was suspended in a Magnus bath filled with a Tyrode's solution (32° C.) aerated by a mixed gas (95% O2, 5% CO2) with a load of 0.5 g applied thereto. The response of the specimen was recorded in terms of isometric contraction through a tension transducer. After the stability of the specimen was attained, an effect on contraction caused by acetylcholine (10^-5 M) was investigated. Incidentally, agents to be tested were applied to the individual specimens in advance for 5 minutes before the test to investigate their effects.
Calcium antagonism against bladder specimens enucleated from rats:
After removal of calcium ion in specimens prepared in accordance with the testing method of Test Example 1 by adding 1 mM EDTA, 10^-3 M calcium chloride was applied to the specimens. After contraction caused by calcium chloride was stable, each of agents to be tested was applied cumulatively to the specimen. Assuming that the contraction upon the first application of the test agent was 100%, a value obtained by subtracting a spontaneous relaxation rage of a specimen, to which no agent was applied, from an inhibiting rate upon the application of the agent of varied concentrations was regarded as a contraction inhibiting rate.

Assay [2] shares this test system. The experiment in a line: Anticholinergic effect on bladder specimens enucleated from rats (contraction caused by acetylcholine). Type of assay: cell-based, rat (male S. D.). Conditions: Rattus norvegicus; inhibition of contraction caused by acetylcholine (10^-5 M); Tyrode's solution 32° C.; agent applied 5 minutes before. As to the method: Anticholinergic effect on bladder specimens enucleated from rats:
as §1

Structures are written as SMILES. Counter-ions that a name gives are not always drawn.

For the molecule `O=C(NC1CCN(Cc2ccccc2)CC1)C(O)(c1ccccc1)C1CCCCC1` (stereo not shown) [Compound 1], in assay [1], the IC30 came out at 2660 nM. The molecule further showed an IC50 in assay [2] of 32 nM. On to `CN1CCC(NC(=O)C(O)(c2ccccc2)C2CCCCC2)CC1` (stereo not shown) [Compound 2], for which, in assay [2], the IC50 turned out to be 434 nM. In the case of `O=C(NC1CCN(Cc2ccccc2)CC1)C(O)(c1ccccc1)C1CC1` (stereo not shown) [Compound 3], in assay [1], the IC30 came out at 26600 nM. In assay [2], this molecule yielded an IC50 of 27 nM. Take `O=C(NC1CCN(Cc2ccccc2)CC1)C(O)(c1ccccc1)C1CCCC1` (stereo not shown) [Compound 4]: in assay [1], the IC30 was 2850 nM. The same molecule displayed an IC50 in assay [2] of 33.6 nM. Take `COc1ccc(C(O)(C(=O)NC2CCN(Cc3ccccc3)CC2)C2CCCC2)cc1` (stereo not shown) [Compound 15]: in assay [2], the midpoint of inhibition, the IC50, lay at 130 nM. Still for that read-out and setting: for `CC(C)C(O)(C(=O)NC1CCN(Cc2ccccc2)CC1)c1ccccc1` (stereo not shown) [Compound 23] the value was 66 nM; for `COc1cccc(C(O)(C(=O)NC2CCN(Cc3ccccc3)CC2)C2CCCC2)c1` (stereo not shown) [Compound 29], 850 nM; for `CC(C)C(O)(C(=O)NC1CCN(Cc2ccccc2)CC1)c1cccc(Cl)c1` (stereo not shown) [Compound 34], 280 nM. Same read-out and setting: for `O=C(NC1CCN(Cc2ccccc2)CC1)C(O)(c1cccc(Cl)c1)C1CCCC1` (stereo not shown) [Compound 35] the value was 200 nM; for `O=C(NC1CCN(Cc2ccccc2)CC1)C(O)(c1ccccn1)C1CCCC1` (stereo not shown) [Compound 49], 6.5 nM; for `Cc1ccc(C(O)(C(=O)NC2CCN(Cc3ccccc3)CC2)C(C)C)cc1` (stereo not shown) [Compound 56], 168 nM. Take `CCCOC(C(=O)OC1CCN(C)CC1)(c1ccccc1)c1ccccc1` [Propiverine hydrochloride, reference compound]: the IC30 in assay [1] was determined as 12100 nM. The same molecule yielded an IC50 in assay [2] of 784 nM.
